The target in one series is T1, FLhPIF1 (Homo sapiens, UniProt Q9H611).
T1 construct: Full length human PIF1 (FLhPIF1) was expressed and purified as a His-SUMO fusion; His-SUMO (cleaved yes); made in house; 'following similar protocols' to hPIF1HD (ArcticExpress BL21(DE3) E. coli)
T1 sequence (Q9H611 1-641): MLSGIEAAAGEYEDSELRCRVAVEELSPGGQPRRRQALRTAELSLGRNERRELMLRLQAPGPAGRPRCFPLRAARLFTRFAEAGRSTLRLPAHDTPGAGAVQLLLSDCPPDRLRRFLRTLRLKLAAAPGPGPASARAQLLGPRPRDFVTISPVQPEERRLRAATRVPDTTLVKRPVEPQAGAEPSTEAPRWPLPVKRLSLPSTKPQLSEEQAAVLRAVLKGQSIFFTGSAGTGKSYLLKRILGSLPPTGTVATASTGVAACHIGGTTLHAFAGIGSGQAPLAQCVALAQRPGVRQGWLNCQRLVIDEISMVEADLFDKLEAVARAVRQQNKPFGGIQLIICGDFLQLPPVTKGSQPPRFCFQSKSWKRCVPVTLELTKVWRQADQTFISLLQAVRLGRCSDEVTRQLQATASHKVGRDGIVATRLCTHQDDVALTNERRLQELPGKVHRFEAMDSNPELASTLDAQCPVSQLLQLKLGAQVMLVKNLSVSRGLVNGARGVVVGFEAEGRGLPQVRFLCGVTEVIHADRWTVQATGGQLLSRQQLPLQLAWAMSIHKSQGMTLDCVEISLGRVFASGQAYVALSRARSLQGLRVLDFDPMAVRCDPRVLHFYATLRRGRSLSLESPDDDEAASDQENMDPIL
Nature of the series: helicase assay after pre-incubation of SMI with FLhPIF1. The series is classed as biochemical. As to conditions: for IC50: read-out: IC50 for dsDNA unwinding by FLhPIF1 following pre-incubation. As to the method: Helicase activity was assayed using a radiometric strand displacement assay employing a partially single- and double-stranded substrate generated by annealing two oligonucleotides: 5′-(T)55-[…] and 5′-[…], as described previously ([19],[28]). The reaction buffer was 20 mM HEPES–NaOH pH 7.5, 20 mM NaCl, 5.5 mM MgCl2, 5 mM ATP, 1 mM DTT and 0.1 mg/ml BSA. SMIs (100 mM stocks in DMSO) were assayed at up to 2 mM without pre-incubation with FLhPIF1, unless otherwise stated. Reactions (0.1 nM substrate) were incubated at 37°C for 20 min, followed by addition of 0.2 volumes of 120 mM EDTA, 0.6% (w/v) SDS, 60% (v/v) glycerol and 0.1% (w/v) bromophenol blue before resolution of products by polyacrylamide gel electrophoresis (8%, 19:1 acrylamide:bis-acrylamide), 1× TBE (90 mM Tris–borate/2 mM EDTA, pH 8.3 with 0.05% (w/v) SDS buffer). Dried gels were exposed to phosphorimaging plates (Fujifilm) for imaging and quantification (Fuji FLA3000, image gauge V3.3 software). IC50 values were analysed by non-linear regression (variable slope) using GraphPad Prism.
First, we screened inhibitory activity of the SMIs listed in Table 1, following incubation of 100 nM FLhPIF1 with 100 μM SMI for 1 h at 22°C in the absence of substrates (ATP and DNA), before a 1:10 dilution into helicase reactions. […] Next, compounds 2, 5, 6 and 11, along with 4 and 1D were selected for analysis in a pre-incubation time-course (100 nM FLhPIF1, 100 μM SMI), up to 3 h before assaying helicase activity.
(§1) In parallel, IC50 values for inhibition of human UPF1 (hUPF1) helicase activity by the SMIs were also determined under the same conditions. UPF1-like SF1B helicases are the most closely related family of helicases to PIF1, with significant structural and mechanistic similarity ([52]).
(§2) Figure 6. SMI IC50 for dsDNA unwinding determined following pre-incubation. SMIs (0.0078–2 mM SMI) were incubated for 2 h at 22°C (100 nM FLhPIF1 or hUPF1) before dilution (1:10) in the standard helicase assay (0.1 nM DNA substrate). For 1D and 6, structures, electrophoresis of FLhPIF1 reaction product and graphs for IC50 value determination are shown. The graphed data include the activity of SMIs towards hUPF1 and IC50 values obtained are given. See Supplementary Figure S14 for the complete data set. TEXT PRINTED IN THE PICTURE: 1D: IC50 (μM): PIF1: 978 ± 221; IC50 (μM): UPF1: N.D. | 6: IC50 (μM): PIF1: 79.4 ± 16; IC50 (μM): UPF1: 1750 ± 426

Series [1] addresses T2, human UPF1 (hUPF1) helicase (Homo sapiens, UniProt Q92900).
T2 construct: Full-length human UPF1 helicase was expressed and purified as described previously; made in house
T2 sequence (Q92900 1-1129): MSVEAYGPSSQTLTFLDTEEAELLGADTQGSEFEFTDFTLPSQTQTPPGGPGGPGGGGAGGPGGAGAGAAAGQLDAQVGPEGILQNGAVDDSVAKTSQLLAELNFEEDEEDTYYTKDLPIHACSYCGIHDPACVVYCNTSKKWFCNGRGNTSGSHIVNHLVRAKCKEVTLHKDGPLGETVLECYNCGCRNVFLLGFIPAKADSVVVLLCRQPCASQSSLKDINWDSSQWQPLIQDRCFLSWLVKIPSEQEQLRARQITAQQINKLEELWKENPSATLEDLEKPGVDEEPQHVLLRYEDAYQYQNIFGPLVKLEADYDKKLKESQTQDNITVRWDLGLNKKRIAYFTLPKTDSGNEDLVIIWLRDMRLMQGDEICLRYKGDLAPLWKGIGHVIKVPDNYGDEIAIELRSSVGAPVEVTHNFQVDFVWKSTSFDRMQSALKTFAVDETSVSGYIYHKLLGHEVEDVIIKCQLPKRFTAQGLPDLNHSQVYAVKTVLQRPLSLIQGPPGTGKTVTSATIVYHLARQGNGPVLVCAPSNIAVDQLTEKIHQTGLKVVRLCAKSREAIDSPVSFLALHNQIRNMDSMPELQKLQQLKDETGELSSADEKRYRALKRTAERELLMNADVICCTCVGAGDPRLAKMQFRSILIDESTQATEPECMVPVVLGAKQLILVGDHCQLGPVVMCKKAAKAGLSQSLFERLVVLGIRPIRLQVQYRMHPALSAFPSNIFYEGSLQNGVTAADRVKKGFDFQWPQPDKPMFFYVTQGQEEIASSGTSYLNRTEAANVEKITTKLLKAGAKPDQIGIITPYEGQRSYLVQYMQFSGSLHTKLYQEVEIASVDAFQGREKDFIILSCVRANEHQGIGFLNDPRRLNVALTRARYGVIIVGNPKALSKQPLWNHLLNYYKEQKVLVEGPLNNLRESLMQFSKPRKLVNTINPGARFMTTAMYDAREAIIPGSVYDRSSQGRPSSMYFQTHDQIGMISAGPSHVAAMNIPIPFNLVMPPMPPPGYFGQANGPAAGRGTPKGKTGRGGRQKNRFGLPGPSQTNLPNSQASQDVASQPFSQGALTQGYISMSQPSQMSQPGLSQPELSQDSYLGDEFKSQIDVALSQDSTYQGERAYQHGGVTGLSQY
Nature of the series: helicase assay after pre-incubation of SMI with hUPF1. It counts as biochemical. As to conditions: 2 h pre-incubation. As to the method: Full-length human UPF1 helicase was expressed and purified as described previously ([36]).
as §1, §2
Supplementary Figure 14. IC50 DNA unwinding determined following 2 hours pre-incubation. […] The assay procedure and reaction conditions for each helicase were identical (see methods, main manuscript). The figure complements main manuscript Figure 6. […] The reason for this is unclear.

The next series deals with T3, hPIF1HD wild type (Homo sapiens, UniProt Q9H611 206-620).
T3 sequence: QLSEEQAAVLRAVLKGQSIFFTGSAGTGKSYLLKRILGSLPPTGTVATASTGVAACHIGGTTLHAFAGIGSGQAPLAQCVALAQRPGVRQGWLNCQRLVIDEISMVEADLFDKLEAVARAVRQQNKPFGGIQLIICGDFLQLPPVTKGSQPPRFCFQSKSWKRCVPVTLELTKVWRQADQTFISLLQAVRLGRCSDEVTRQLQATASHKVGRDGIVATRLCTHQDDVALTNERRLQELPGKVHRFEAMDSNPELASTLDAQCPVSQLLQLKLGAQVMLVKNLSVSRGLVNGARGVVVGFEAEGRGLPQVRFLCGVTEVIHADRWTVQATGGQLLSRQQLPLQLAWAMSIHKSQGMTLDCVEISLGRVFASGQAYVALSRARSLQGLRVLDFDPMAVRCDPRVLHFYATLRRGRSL
Nature of the series: EMSA; 5 mM AMP-PNP, 5.5 mM MgCl2; 2 nM protein, 0.25 nM DNA; no inhibitor; 20 mM HEPES-NaOH pH 7.5, 20 mM NaCl, 5.5 mM MgCl2, 5 mM AMP-PNP, 1 mM DTT, 0.1 mg/ml BSA; 0.25 nM DNA; binding temperature not stated explicitly (helicase assay conditions 37 C); 5% PAGE, 0.25x TBE. Particulars: protein: recombinant; tags: N-terminal His6 removed; GSRM cloning residues remain; label: 5'-32P; single strand. In general terms: Mobility shift assays separate free from complexed probe on a gel.

Where two headings read alike, the source gives them in different places.

Usually IC50 stands for the concentration needed to halve the response being measured. Regarding `CC(=O)Nc1ccc(-c2csc(N)n2)cc1` [Compound 1D], the IC50 is 978 ± 221 µM on FLhPIF1 (2 h pre-incubation at 22°C with 100 nM FLhPIF1, then 1:10 dilution into helicase assay) and around 1000 µM at FLhPIF1 (2 h pre-incubation at 22°C). In addition, the “increase in inhibition of FLhPIF1 DNA unwinding after pre-incubation” value on FLhPIF1 (3 h pre-incubation, 100 nM FLhPIF1, 100 μM SMI) is given as 5–10%. The “inhibition of hUPF1 helicase” value in series [1] is recorded as “minimal inhibition”.

B1: oligo d(T)55 (ssDNA)
DNA: TTTTTTTTTTTTTTTTTTTTTTTTTTTTTTTTTTTTTTTTTTTTTTTTTTTTTTT
On to B1, for which, in the series with hPIF1HD wild type, the binding result is given as “binds”.

Values taken from publication PMC11551755, “Structure-based discovery of first inhibitors targeting the helicase activity of human PIF1” (Nucleic Acids Research, 2024).
